Where two headings read alike, the source gives them in different places.
Assays:
24-h urinary recovery = assay type: in vivo; conditions: female, F344, rat, urine, po, 300 μmol/kg, single oral dose 300 μmol/kg
Experimental: Measurement of pharmacokinetic profiles of AITC and NAC-AITC. The experiment was carried out in female F344 rats since these animals were used in the rat bladder cancer model described above. Groups of three to five rats (8-9 weeks of age) were given a single oral dose of AITC, NAC-AITC or vehicles. AITC was administered in 0.5 ml of soy oil per rat, whereas NACAITC was dissolved in DMSO and diluted with water and administered in 0.2 ml volume (5% DMSO) per rat. The rats were immediately transferred to metabolism cages (one rat per cage), with free access to food and water, for urine collection over four consecutive periods of 0-1.5, 1.5-3, 3-6 and 6-24 h. […]
(§1) AITC and NAC-AITC contents in the plasma and urine were determined using the high-performance liquid chromatography (HPLC)-based cyclocondensation assay, and are expressed as AITC equivalent or NAC-AITC equivalent. […]
To specifically measure urinary levels of NAC-AITC, groups of five rats were dosed orally with either AITC or NAC-AITC at 300 μmol/kg and immediately moved to metabolism cages (one rat per cage) for 24 h urine collection. […] The compounds were monitored at both 230 nm (AITC) and 254 nm (its metabolites). […] The fraction corresponding to NAC-AITC was collected and quantified by the cyclocondensation assay; its identity was confirmed by infusion electrospray ionization mass spectrometry.

[1] = tested on: normal human bladder epithelial cells (HUC); test: MTT cell growth assay, normal bladder epithelial cells; assay type: cell-based; conditions: 72-h treatment
Experimental: FIG. 3. The effect of AITC on cell survival and proliferation. AITC was evaluated at the indicated concentrations in human bladder cancer UM-UC-3 cells, rat bladder cancer AY-27 cells, and normal human bladder epithelial cells (HUC). A. Cell growth inhibition, measured by MTT assay, 72-h AITC treatment. IC50 was calculated from nonlinear regression curve fit. B. Cell cycle arrest (□, subG1; ? , G1; ? , 5; ▪, G2/M), measured by flow cytometry, 24 h AITC treatment. C. Apoptosis induction, measured by an ELISA assay, 24 h AITC treatment. Mean±SE, n=3-6), *P<0.05.

UM-UC-3 cells [2] = test: Wright-Giemsa staining for mitotic figures, UM-UC-3 cells; assay type: cell-based, human; conditions: 24 h, compared with G2/M by flow cytometry
Experimental: (§2) FIG. 4. Effect of AITC on mitosis, tubulin expression and apoptosis in human bladder cancer UM-UC-3 cells. Cells were treated with vehicle or AITC for 24 h (each numerical value is mean±SD). A. Flow cytometry analysis for cell cycle arrest. B. Wright-Giemsa staining for counting mitotic figures. Arrows point to cells in mitosis or mitotic catastrophe. C. Immunofluorescent staining of microtubules (green color) and DNA staining with DAPI (blue color). D. Western blotting of tubulins (GAPDH as a loading control). E. Loss of mitochondrial transmembrane potential (Δψm) measured by flow cytometry. F. Western blotting of caspase-9 and caspase-3 (GAPDH as a loading control). G. Apoptotic cells (TUNEL cells) measured by flow cytometry. Cells in F and G were co-treated with or without 20 microM Z-LEHD-FMK (a caspase-9 inhibitor).

tubulin = test: Tubulin polymerization in vitro assay; assay type: biochemical; conditions: result not shown
UM-UC-3 cells [3] = test: Mitochondria-mediated apoptosis in UM-UC-3 cells (Δψm, cytochrome c, TUNEL); assay type: cell-based, human
Experimental: as §2

[4] = female, F344, rat, in vivo
Experimental: FIG. 7. Pharmacokinetics of AITC in F344 rats. A & B. Five groups of 4-6 female rats were administered a single oral dose of AITC at 10 or 300 micromols/kg and then kept in metabolism cages for urine collection (1 rat/cage) for 1.5, 3, 6, 12 and 24 h. At the end of each time period, blood was drawn from one group of rats, from which plasma was prepared. C. Rats bearing orthotopic bladder tumors, 3 weeks after AY-27 cell inoculation, were administered a single oral dose of AITC at 300 micromols/kg. Orthotopic tumors were removed from the rats at 0 h (T1), 1.5 h (T2), and 6 h (T3) after AITC dosing. Concentrations of AITC equivalent in plasma, urine and tumor tissue homogenates were determined by the cyclocondensation assay developed in our lab. Each value is a mean±SE.
Rats were administered a single oral dose of AITC at 10 or 300 micromols/kg, and urine and blood were collected at several time intervals up to 24 h. Cyclocondensation assay was used for measurement of AITC equivalent in the samples [12]. Oral administration of AITC led to dose-dependent increase in the levels of AITC equivalent in both plasma and urine (FIGS. 7A & 7B). […]
as §1

SMILES: C=CCNC(=S)SC[C@H](NC(C)=O)C(=O)O [NAC-AITC, N-acetyl-S—(N-allylthiocarbamoyl)cysteine]
- dose excreted (24-h urinary recovery; HPLC fraction, read-out: 24-h urinary recovery, Recovered as NAC-AITC, % of adminstered dose): 47.3 ± 1.8%
- dose excreted (24-h urinary recovery; read-out: 24-h urinary recovery, Recovered as NAC-AITC, % of total recovery): 83.3%

SMILES: C=CCN=C=S [AITC, allyl isothiocyanate]
- IC50 [1]: 69.4 µM
- arrest in mitosis (UM-UC-3 cells [2]): arrested cells almost exclusively in mitosis
- rate of tubulin polymerization (tubulin): no effect
- TUNEL-positive cells (UM-UC-3 cells [3]; 24 h, flow cytometry): formation of TUNEL-positive cells
- mitochondrial transmembrane potential (UM-UC-3 cells [3]; 24 h, flow cytometry): caused a loss of mitochondrial transmembrane potential
- cytochrome c release (UM-UC-3 cells [3]; result not shown): release of cytochrome c from mitochondria to cytoplasm
- average 24-h urinary concentration as % of peak urinary concentration [4]: 11.6-45.2%
- average 24-h urinary concentration relative to plasma concentration at 24 h [4]: 4,911-14,501 fold higher

From US9486434B2, “Method for delivery and use of isothiocyanates for prophylaxis and/or therapy of bladder cancer” (Health Research Inc., priority 2010, dated 2016)
